Laboratory results from paper PMC8412326, “A novel angiotensin I-converting enzyme inhibitory peptide derived from the trypsin hydrolysates of salmon bone proteins” (PLoS ONE, 2021).
Where two headings read alike, the source gives them in different places. Ends that are not written are not given here.

Key:
[1] = test system: ACE; settings: cited from earlier work
Description: Trp-Pro-Met-Gly-Phe (636.75 Da) is one such example, obtained from the trypsin hydrolysates of Cyclina sinensis, along with Val-Val-Ser-Leu-Ser-Ile-Pro-Arg (869.53 Da) which comes from pigeon pea seeds. There have been some ACE-inhibitory peptides reported to carry out their ACE-inhibitory activity through an uncompetitive pattern, including Ala-Trp, Phe-Tyr, and Ile-Trp which are derived from wakame hydrolysates of (Undaria pinnatifida) using protease, and also Phe-Glu-Ser-As ...

[2] = test system: ACE; settings: cited from earlier work; remark: listed apart in the source
Description: For example, Phe-Leu was isolated from the hydrolysate of chum salmon muscle by Ono et al.. […] In addition, peptides offering antihypertensive capabilities obtained from ...

[3] = molecular target: T1, ACE (E.C. 3.4.15.1) derived from rabbit lungs (Oryctolagus cuniculus, UniProt P12822); test: ACE inhibition kinetics (Lineweaver-Burk); assay type: biochemical; settings: secondary plot 1/Vmax vs peptide concentration; 37°C; n = 3
T1 construct: ACE (E.C. 3.4.15.1) derived from rabbit lungs; purchased Sigma Chemical Co. (St. Louis, MO, USA); host or cells: rabbit lung tissue
T1 sequence (P12822 34-1310): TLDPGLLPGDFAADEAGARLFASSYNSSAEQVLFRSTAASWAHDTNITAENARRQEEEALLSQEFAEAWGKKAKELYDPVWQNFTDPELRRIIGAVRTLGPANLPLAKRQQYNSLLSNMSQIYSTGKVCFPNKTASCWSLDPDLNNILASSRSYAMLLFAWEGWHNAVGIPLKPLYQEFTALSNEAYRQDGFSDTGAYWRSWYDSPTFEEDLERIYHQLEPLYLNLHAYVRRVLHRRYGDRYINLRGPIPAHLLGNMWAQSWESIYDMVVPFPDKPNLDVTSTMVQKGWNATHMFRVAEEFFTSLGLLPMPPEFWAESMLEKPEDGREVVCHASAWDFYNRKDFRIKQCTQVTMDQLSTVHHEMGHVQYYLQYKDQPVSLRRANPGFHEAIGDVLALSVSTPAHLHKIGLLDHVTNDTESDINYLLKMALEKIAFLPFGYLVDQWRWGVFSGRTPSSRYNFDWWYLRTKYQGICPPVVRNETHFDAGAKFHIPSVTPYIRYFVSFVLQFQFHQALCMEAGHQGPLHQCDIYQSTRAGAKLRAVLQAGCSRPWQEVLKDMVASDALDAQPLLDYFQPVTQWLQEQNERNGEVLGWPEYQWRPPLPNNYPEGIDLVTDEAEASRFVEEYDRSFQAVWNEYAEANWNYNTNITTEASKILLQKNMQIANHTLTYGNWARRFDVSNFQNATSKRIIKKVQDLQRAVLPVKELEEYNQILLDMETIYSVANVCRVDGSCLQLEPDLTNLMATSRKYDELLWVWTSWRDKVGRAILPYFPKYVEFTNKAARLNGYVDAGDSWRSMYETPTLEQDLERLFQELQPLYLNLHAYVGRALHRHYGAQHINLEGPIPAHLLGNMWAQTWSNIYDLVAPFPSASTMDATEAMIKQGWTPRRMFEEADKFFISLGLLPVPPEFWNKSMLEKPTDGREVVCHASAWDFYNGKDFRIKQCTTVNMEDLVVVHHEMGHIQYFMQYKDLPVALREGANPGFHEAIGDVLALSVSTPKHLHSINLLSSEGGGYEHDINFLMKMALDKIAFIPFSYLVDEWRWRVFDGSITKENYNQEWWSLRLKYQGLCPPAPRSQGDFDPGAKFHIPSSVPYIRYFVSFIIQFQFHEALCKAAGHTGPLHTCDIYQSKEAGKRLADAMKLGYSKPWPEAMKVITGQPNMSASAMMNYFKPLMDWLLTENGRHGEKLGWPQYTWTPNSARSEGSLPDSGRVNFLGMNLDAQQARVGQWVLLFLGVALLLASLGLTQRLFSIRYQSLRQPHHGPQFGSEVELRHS
Description: (§1) The chemicals used in the study included ACE (E.C. 3.4.15.1) derived from rabbit lungs, acetonitrile, bovine serum albumin (BSA), captopril, dithiothreitol (DTT), hippuric acid, hippuryl-L-histidyl-L-leucine (HHL), o-phthaldehyde (OPA), sodium dodecyl sulfate (SDS), sodium tetraborate decahydrate, 2, 4, 6-trinitrobenzenesulfonic acid (TNBS), and Trypsin from porcine pancreas (1500 U/mg), all of which were obtained from Sigma Chemical Co. (St. Louis, MO, USA). In addition, dithiothreitol (DTT) and L-serine were purchased from Merck (Germany). All chemicals used were of analytical grade.
ACE-inhibition kinetics were evaluated using varied HHL concentrations (0.5, 1, 3, 5, and 7 mM) to which varied FCLYELAR peptide concentrations were introduced (0.05, 0.1 and 0.2 mM). The reaction assay required that the peptide concentrations which had been dissolved in PBS undergo incubation with the ACE solution which contained the different HHL concentrations which had been dissolved in the reaction buffer. Aliquots of sodium sulfite and TNBS were subsequently added prior to 80minutes of incubation at a temperature of 37°C, allowing the level of ACE-inhibitory activity to be evaluated. […] Secondary plots were then used to determine the inhibitor constant (Ki). […]

[4] = Solubility in ultrapure water; assay type: physicochemical; settings: read-out: Solubility in ultrapure water (good solubility at concentrations not exceeding the value)
[5] = molecular target: T1, ACE (E.C. 3.4.15.1) derived from rabbit lungs; test: ACE-inhibitory activity assay (HHL substrate, TNBS); assay type: biochemical; settings: synthetic peptide, purity at least 95%; 5 mM HHL, pH 8.3, 37°C, 1 h, 420 nm
Description: as §1
The ACE -inhibition test was performed following the approach of Ibrahim et al.. At the beginning of the inhibition assay, a 10 μL aliquot of the peptide sample was added to 31 μL of 50 mM potassium phosphate buffer with a pH of 8.3 containing 0.3 M NaCl in each well of the 96-well microplate, while PBS was used for the control reaction. […] The ACE -inhibitory activity was determined by measuring the absorbance at 420 nm. […] The following Eq (3) was used to calculate the percentage of ACE -inhibitory activity: ACE-inhibitoryactivity%=C−Bi−S−Bs/C−Bi×100 (3) in which the absorbance of the control is given by C (100% activity), the sample (inhibitor peptide) is given by S, the blank inhibitor (HHL alone) is given by Bi, and the blank sample (peptide alone) is represented by Bs. […]

[6] = hen egg white lysozyme (HEWL) hydrolysates

Q: For “Trp-Pro-Met-Gly-Phe [from trypsin hydrolysates of Cyclina sinensis]”, which Inhibition pattern ([1]; Cyclina sinensis trypsin hydrolysates) is on record?
A: competitive

Q: With “MEVFVP [from flounder muscle hydrolysates]” as the substance, how does the IC50 ([2]; flounder muscle hydrolysate) read?
A: 79 µM

Q: For Phe-Leu, which IC50 ([2]; chum salmon muscle hydrolysate, thermolysin) is on record?
A: 13.6 µM

Q: With Ile-Trp as the substance, how does the Inhibition pattern ([1]; wakame hydrolysates) read?
A: uncompetitive

Q: Which results are given for “FESNFNTQATNR [from lysozyme (HEWL) hydrolysates of hens’ eggs]”?
A: Inhibition pattern [1, 6]: uncompetitive; Ki [1, 6]: 0.082 mg/mL

Q: Which results are given for “FCLYELAR [FCLYELAR, Phe-Cys-Leu-Tyr-Glu-Leu-Ala-Arg]”?
A: Ki [3]: 24.8 µM; solubility [4]: ≥ 5000 µg/mL; IC50 [5]: 31.63 ± 0.15 µM

Q: For “VSQLTR [from flounder muscle hydrolysates]”, which IC50 ([2]; flounder muscle hydrolysate) is on record?
A: 105 µM

Q: For FGMPLDR [from Ulva intestinalis], which IC50 ([2]; Ulva intestinalis) is on record?
A: 219 µM

Q: Which IC50 ([2]; Alaska pollack hydrolysate, pepsin) does the source give for “FGASTRGA [from Alaska pollack hydrolysates with pepsin]” here?
A: 14.7 µM

Q: With “YLYEIARR [from the tryptic hydrolysate found in human plasma]” as the substance, how does the Inhibition pattern ([1]; tryptic hydrolysate of human plasma) read?
A: uncompetitive

Q: Which Inhibition pattern ([1]; wakame hydrolysates) does the source give for Ala-Trp here?
A: uncompetitive

Q: Which Inhibition pattern ([1]; pigeon pea seeds) does the source give for VVSLSIPR [from pigeon pea seeds] here?
A: competitive

Q: With “Gly-Asp-Leu-Gly-Lys-Thr-Thr-Thr-Val-Ser-Asn-Trp-Ser-Pro-Pro-Lys-Try-Lys-Asp-Thr-Pro [from tuna frame protein]” as the substance, how does the IC50 ([2]; tuna frame protein) read?
A: 11.3 µM

Q: For MELVLR [from Ulva intestinalis], which IC50 ([2]; Ulva intestinalis) is on record?
A: 237 µM

Q: With Phe-Tyr as the substance, how does the Inhibition pattern ([1]; wakame hydrolysates) read?
A: uncompetitive
